Here are results for 24 molecules from patent US10894052B2, “Heterocyclic inhibitors of ATR kinase” (Board of Regents, The University of Texas System, priority 2018, dated 2021).

For orientation: IC50 means the concentration needed to halve the response being measured.

Molecules are shown by their SMILES. Where two headings read alike, the source gives them in different places.

The target in one test is ATR/ATRIP complex (Homo sapiens (Human), UniProt Q13535). The test can be described thus: ATR/ATRIP enzymatic assay (Caliper-based). It counts as biochemical. The conditions noted are these: ATR/ATRIP enzyme; FAM-labeled RAD17 peptide, ATP. How it is done: (§1) The ability of the compounds of Formula I to inhibit the catalytic activity of the ATR/ATRIP complex was measured in a Caliper-based assay, and in HT-29 cells in an Alphascreen assay, following the ATR-mediated phosphorylation of CHK1, described below.
Human full-length FLAG-TEV-ATR and His6-ATRIP were co-expressed in HEK293 cells. […] The sample was loaded into a column, and then washed with buffer A three times. Protein was subsequently eluted with 2 ml of buffer B (buffer A+200 μg/ml 3×FLAG peptide).
The ability of new chemical matter to inhibit the ATR catalytic activity in this ATR/ATRIP complex was assessed using a Caliper-based assay. A 2× enzyme solution (i.e., 4 nM enzyme) was prepared using 1× Kinase Reaction Buffer (25 mM HEPES pH 8, 0.0055% Brij-35, 10 mM MnCl2, and 1 mM DTT). […] 10 μL of the 2× enzyme solution was transferred to an assay plate containing 60 nL of test compound (from a 3× serial dilution) in 100% DMSO. Following a 30-min incubation at 28° C., 10 μL of the 2× peptide solution was then transferred to the same assay plate. The reaction incubated at 28° C. for 6 h. After adding 30 μL stop buffer (100 mM HEPES pH 7.5, 0.015% Brij-35, 0.2% Coating-3 Reagent (PerkinElmer, catalog #PN760050), and 50 mM EDTA), data were collected on a Caliper instrument. Conversion values were converted to inhibition values via the following equation: % inhibition=(max−conversion)/(max−min)*100, wherein “max” corresponds to the DMSO control, and “min” corresponds to the low control. IC50 values were calculated using the following equation in XLFit: Y=Bottom+(Top−Bottom)/1+(IC50/X)^HillSlope).

Test [1] has as its system ATR-driven phosphorylation of Chk1 kinase at Serine 345 in HT-29 cells. The test can be described thus: pCHK1 cellular assay (CHK1 p-Ser345 AlphaScreen SureFire). It counts as cell-based. The conditions noted are these: HT-29 colorectal adenocarcinoma cells, 4-nitroquinoline N-oxide 12 μM, read-out: Cell IC50 (pCHK1). How it is done: as §1
Cellular IC50 for the inhibitors of ATR described herein were measured in HT-29 colorectal adenocarcinoma cells.
The microplate was incubated overnight (approximately 20 hours) at 37° C. with 5% CO2 and ambient O2. Stock solutions of the test compounds were prepared in 100% DMSO (Sigma, Catalog #D2650) and serially diluted 1:3 using 100% DMSO. Compounds were additionally diluted 1:33 in culture medium, and 10 μL/well were transferred to the tissue culture plate. Following the compound addition, the microplate was incubated at 37° C. for 90 minutes. […] The cells were then washed with PBS and lysed using 10 μL/well […]® Kit lysis buffer diluted to 1× in water (PerkinElmer Catalog #TGRCHK1S50K), with mixing on an orbital shaker at 500 rpm for 20 min at room temperature. Lysates were frozen at −20 OC overnight.
The pCHK1 ALPHASCREEN® signal was measured using an ENVISION® plate reader (PerkinElmer). IC50 values were calculated using a four-parameter logistic curve fit using Genedata Screener software. Percent of control for each compound concentration was calculated by the following formula: 100*(Compound−Min)/(Max−Min), where “Max” is the high control, DMSO, and “Min” is the low control, 5 μM ATR inhibitor.

Sequence of ATR/ATRIP complex (Q13535 whole entry): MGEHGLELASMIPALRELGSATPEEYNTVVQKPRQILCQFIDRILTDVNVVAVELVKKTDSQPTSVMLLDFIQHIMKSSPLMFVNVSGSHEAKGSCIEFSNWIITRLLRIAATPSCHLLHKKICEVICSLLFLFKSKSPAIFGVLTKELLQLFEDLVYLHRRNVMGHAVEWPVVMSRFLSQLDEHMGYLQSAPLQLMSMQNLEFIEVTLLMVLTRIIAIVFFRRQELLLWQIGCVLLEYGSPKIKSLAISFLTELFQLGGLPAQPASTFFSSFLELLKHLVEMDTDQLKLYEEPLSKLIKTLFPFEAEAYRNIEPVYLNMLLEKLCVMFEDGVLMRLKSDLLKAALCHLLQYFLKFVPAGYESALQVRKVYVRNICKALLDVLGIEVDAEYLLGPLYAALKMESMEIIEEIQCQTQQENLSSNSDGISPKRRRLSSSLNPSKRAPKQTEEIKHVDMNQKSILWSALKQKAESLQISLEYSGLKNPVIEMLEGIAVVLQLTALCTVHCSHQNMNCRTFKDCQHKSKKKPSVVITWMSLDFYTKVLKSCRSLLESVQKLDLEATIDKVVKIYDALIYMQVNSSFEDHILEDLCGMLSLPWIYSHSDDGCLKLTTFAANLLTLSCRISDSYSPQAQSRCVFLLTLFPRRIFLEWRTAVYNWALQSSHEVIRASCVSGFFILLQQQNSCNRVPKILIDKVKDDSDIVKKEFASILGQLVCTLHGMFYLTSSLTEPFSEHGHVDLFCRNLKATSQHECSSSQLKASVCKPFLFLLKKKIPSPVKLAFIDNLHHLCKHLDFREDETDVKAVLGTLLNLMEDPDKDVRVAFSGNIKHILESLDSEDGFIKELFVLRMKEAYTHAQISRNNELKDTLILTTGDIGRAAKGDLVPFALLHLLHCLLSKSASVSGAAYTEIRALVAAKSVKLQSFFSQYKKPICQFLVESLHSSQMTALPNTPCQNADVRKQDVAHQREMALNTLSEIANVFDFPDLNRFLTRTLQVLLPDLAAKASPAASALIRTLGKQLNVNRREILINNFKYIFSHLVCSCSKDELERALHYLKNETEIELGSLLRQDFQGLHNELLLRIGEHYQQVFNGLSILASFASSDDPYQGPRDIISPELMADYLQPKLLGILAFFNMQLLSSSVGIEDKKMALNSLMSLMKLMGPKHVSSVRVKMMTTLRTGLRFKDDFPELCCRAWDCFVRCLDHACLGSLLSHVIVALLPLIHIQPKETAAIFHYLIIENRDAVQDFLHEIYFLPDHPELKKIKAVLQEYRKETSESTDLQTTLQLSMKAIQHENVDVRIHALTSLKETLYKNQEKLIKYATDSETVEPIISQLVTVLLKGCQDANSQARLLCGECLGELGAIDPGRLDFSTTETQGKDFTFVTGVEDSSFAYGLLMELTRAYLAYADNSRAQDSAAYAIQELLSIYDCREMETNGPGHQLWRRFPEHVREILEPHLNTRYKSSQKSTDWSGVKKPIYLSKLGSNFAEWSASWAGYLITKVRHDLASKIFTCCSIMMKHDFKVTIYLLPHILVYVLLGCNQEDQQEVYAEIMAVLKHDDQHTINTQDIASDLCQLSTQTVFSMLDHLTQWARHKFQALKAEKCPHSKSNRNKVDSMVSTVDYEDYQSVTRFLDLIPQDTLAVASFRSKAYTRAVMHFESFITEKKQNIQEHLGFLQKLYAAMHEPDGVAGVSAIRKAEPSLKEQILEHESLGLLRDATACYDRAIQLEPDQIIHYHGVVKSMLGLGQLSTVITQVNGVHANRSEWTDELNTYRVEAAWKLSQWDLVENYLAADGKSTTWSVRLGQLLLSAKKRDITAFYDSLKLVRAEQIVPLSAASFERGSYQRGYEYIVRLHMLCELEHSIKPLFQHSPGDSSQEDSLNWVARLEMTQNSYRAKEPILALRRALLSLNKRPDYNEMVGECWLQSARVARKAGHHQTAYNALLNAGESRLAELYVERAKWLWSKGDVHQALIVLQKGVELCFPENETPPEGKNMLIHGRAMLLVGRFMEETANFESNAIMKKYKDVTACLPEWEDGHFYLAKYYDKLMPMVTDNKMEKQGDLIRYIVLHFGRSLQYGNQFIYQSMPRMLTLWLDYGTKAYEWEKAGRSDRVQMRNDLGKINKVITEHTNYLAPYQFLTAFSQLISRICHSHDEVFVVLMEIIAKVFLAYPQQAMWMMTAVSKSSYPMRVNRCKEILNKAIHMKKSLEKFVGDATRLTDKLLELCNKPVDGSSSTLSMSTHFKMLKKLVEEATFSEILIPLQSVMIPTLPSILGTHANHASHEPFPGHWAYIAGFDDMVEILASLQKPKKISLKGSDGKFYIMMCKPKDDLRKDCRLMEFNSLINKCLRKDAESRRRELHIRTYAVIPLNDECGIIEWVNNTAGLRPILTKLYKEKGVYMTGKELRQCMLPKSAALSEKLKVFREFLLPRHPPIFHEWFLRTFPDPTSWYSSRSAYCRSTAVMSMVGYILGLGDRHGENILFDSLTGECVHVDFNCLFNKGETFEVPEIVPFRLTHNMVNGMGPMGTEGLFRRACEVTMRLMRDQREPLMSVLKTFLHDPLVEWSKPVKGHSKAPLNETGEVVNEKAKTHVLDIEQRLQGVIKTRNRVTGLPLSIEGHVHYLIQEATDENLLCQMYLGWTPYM
Sequence of ATR/ATRIP complex (Q8WXE1 whole entry partner): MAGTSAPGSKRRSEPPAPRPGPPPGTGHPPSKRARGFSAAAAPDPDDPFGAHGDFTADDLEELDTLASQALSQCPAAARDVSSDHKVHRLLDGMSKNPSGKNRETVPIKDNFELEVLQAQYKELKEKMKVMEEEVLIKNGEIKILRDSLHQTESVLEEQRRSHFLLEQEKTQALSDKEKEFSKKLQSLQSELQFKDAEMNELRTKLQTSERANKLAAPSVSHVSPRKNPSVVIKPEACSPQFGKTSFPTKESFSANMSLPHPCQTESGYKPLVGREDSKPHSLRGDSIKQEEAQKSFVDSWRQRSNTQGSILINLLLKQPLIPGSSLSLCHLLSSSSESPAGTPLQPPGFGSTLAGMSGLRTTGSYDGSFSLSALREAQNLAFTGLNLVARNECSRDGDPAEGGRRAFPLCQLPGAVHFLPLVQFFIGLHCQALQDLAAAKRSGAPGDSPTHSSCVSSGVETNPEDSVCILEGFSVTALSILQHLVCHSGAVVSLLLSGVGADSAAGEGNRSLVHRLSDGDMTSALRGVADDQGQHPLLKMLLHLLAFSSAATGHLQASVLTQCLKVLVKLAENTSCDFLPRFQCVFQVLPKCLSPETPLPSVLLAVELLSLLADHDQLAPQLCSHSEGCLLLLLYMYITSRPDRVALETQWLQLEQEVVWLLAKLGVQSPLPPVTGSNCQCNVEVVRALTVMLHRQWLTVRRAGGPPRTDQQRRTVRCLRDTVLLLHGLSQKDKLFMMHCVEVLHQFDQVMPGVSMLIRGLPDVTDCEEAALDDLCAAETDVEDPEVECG

Take `C[C@@H]1COCCN1c1cc(N=S(C)(C)=O)nc(-c2ccnc3[nH]cnc23)c1` [Example 2, (R)-((6-(3H-Imidazo[4,5-b]pyridin-7-yl)-4-(3-methylmorpholino)pyridin-2-yl)imino)dimethyl-λ^6-sulfanone]: the figures for the half-inhibitory concentration (IC50) (against ATR/ATRIP complex; in test [1] (Homo sapiens)) were 118 nM and 804 nM, respectively.
For `Cc1nc2cccnc2n1-c1cc(N2CCOC[C@H]2C)cc(N=S(C)(C)=O)n1` [Example 4, (R)-Dimethyl((6-(2-methyl-3H-imidazo[4,5-b]pyridin-3-yl)-4-(3-methylmorpholino)pyridin-2-yl)imino)-λ^6-sulfanone] the same measures were 986 nM and 10000 nM.
For `C[C@@H]1COCCN1c1cc(N=S(C)(C)=O)nc(-n2cnc3cccnc32)c1` [Example 5, (R)-((6-(3H-Imidazo[4,5-b]pyridin-3-yl)-4-(3-methylmorpholino)pyridin-2-yl)imino)dimethyl-λ^6-sulfanone] the same measures were 44 nM and 10000 nM.
Take `C[C@@H]1COCCN1c1cc(N=S(C)(C)=O)nc(-n2c(C(F)F)nc3ccccc32)c1` [Example 6, (R)-((6-(2-(Difluoromethyl)-1H-benzo[d]imidazol-1-yl)-4-(3-methylmorpholino)pyridin-2-yl)imino)dimethyl-λ^6-sulfanone]: the values for the IC50 (against ATR/ATRIP complex; in test [1] (Homo sapiens)) were 5 nM and 2320 nM, respectively.
Taken in the same sequence, the figures for `C[C@@H]1COCCN1c1cc(N=S(C)(C)=O)nc(-n2c(CO)nc3ccccc32)c1` [Example 7, (R)-((6-(2-(Hydroxymethyl)-1H-benzo[d]imidazol-1-yl)-4-(3-methylmorpholino)pyridin-2-yl)imino)dimethyl-λ^6-sulfanone] were 16 nM and 8620 nM.
Taken in the same sequence, the figures for `C[C@@H]1COCCN1c1cc(N=S(C)(C)=O)nc(-n2c(CF)nc3ccccc32)c1` [Example 8, (R)-((6-(2-(Fluoromethyl)-1H-benzo[d]imidazol-1-yl)-4-(3-methylmorpholino)pyridin-2-yl)imino)dimethyl-λ^6-sulfanone] were 5 nM and 3330 nM.
On to `C[C@@H]1COCCN1c1cc(N=S(C)(C)=O)nc(-n2c(N)nc3ccccc32)c1` [Example 9, (R)-((6-(2-Amino-1H-benzo[d]imidazol-1-yl)-4-(3-methylmorpholino)pyridin-2-yl)imino)dimethyl-λ^6-sulfanone], for which the IC50 turned out to be 1 nM against ATR/ATRIP complex and 159 nM in test [1] (Homo sapiens).
As to `CNc1nc2ccccc2n1-c1cc(N2CCOC[C@H]2C)cc(N=S(C)(C)=O)n1` [Example 10, (R)-Dimethyl((6-(2-(methylamino)-1H-benzo[d]imidazol-1-yl)-4-(3-methylmorpholino)pyridin-2-yl)imino)-λ^6-sulfanone], the IC50 worked out at 1 nM against ATR/ATRIP complex and 35 nM in test [1] (Homo sapiens).
In the case of `C[C@@H]1COCCN1c1cc(N=S(C)(C)=O)nc(-n2cnc3ccccc32)c1` [Example 11, (R)-((6-(1H-benzo[d]imidazol-1-yl)-4-(3-methylmorpholino)pyridin-2-yl)imino)dimethyl-λ^6-sulfanone], the IC50 against ATR/ATRIP complex turned out to be 9 nM; in test [1] (Homo sapiens), 3160 nM.
Taken in the same sequence, the figures for `Cc1cc2c(-c3cc(N4CCOC[C@H]4C)cc(N=S(C)(C)=O)n3)ccnc2[nH]1` [Example 12, (R)-dimethyl((6-(2-methyl-1H-pyrrolo[2,3-b]pyridin-4-yl)-4-(3-methylmorpholino)pyridin-2-yl)imino)-λ^6-sulfanone] were 11 nM and 99 nM.
For `C[C@@H]1COCCN1c1cc(N=S(C)(C)=O)nc(-c2cncc3[nH]ccc23)c1` [Example 13, (R)-dimethyl((4-(3-methylmorpholino)-6-(1H-pyrrolo[2,3-c]pyridin-4-yl)pyridin-2-yl)imino)-λ^6-sulfanone] the same measures were 9 nM and 232 nM.
Consider `COc1cc(-c2cc(N3CCOC[C@H]3C)cc(N=S(C)(C)=O)n2)c2cc[nH]c2n1` [Example 14, (R)-((6-(6-methoxy-1H-pyrrolo[2,3-b]pyridin-4-yl)-4-(3-methylmorpholino)pyridin-2-yl)imino)dimethyl-λ^6-sulfanone], for which the IC50 at ATR/ATRIP complex was 48 nM; in test [1] (Homo sapiens), 3650 nM.
For `C[C@@H]1COCCN1c1cc(N=S(C)(C)=O)nc(-c2ccnc(N)c2)c1` [Example 15, (R)-((2′-amino-4-(3-methylmorpholino)-[2,4′-bipyridin]-6-yl)imino)dimethyl-λ^6-sulfanone] the same measures were 372 nM and 875 nM.
Taken in the same sequence, the figures for `C[C@@H]1COCCN1c1cc(N=S(C)(=O)C2COC2)nc(-c2ccnc3[nH]ccc23)c1` (stereo partly drawn) [Example 17, methyl((4-((R)-3-methylmorpholino)-6-(1H-pyrrolo[2,3-b]pyridin-4-yl)pyridin-2-yl)imino)(oxetan-3-yl)-λ^6-sulfanone] were 12 nM and 638 nM.
For `CCOc1cc(-c2cc(N3CCOC[C@H]3C)cc(N=S(C)(C)=O)n2)c2cc[nH]c2n1` [Example 18, (R)-((6-(6-ethoxy-1H-pyrrolo[2,3-b]pyridin-4-yl)-4-(3-methylmorpholino)pyridin-2-yl)imino)dimethyl-λ^6-sulfanone] the same measures were 29 nM and 470 nM.
Take `CCOc1cc(-c2cc(N3CCOC[C@@H]3C)cc(N=S(C)(C)=O)n2)c2cc[nH]c2n1` [Example 19]: the IC50 was 4 nM against ATR/ATRIP complex and 195 nM in test [1].
As for `C[C@@H]1COCCN1c1cc(N=S(C)(C)=O)nc(-c2cccc3[nH]ccc23)c1` [Example 20, (R)-((6-(1H-indol-4-yl)-4-(3-methylmorpholino)pyridin-2-yl)imino)dimethyl-λ^6-sulfanone], the IC50 on ATR/ATRIP complex is 12 nM; in test [1] (Homo sapiens) it was 364 nM.
With `C[C@@H]1COCCN1c1cc(N=S(C)(=O)C2CC2)nc(-c2cncc3[nH]ccc23)c1` (stereo partly drawn) [Example 21, cyclopropyl(methyl)((4-((R)-3-methylmorpholino)-6-(1H-pyrrolo[2,3-c]pyridin-4-yl)pyridin-2-yl)imino)-λ^6-sulfanone], the IC50 against ATR/ATRIP complex was found to be 9 nM; in test [1] (Homo sapiens), 110 nM.
For the molecule `C[C@@H]1COCCN1c1cc(N=S(C)(=O)C2CC2)nc(-c2cncc3[nH]ccc23)c1` (some centres unmarked) [Example 22], the half-inhibitory concentration (IC50) was determined as 6 nM against ATR/ATRIP complex and 282 nM in test [1].
For `C[C@@H]1COCCN1c1cc(N=S(C)(C)=O)nc(-c2cccc3[nH]cnc23)c1` [Example 23, (R)-((6-(1H-benzo[d]imidazol-4-yl)-4-(3-methylmorpholino)pyridin-2-yl)imino)dimethyl-λ^6-sulfanone], the IC50 on ATR/ATRIP complex was found to be 8 nM; in test [1] (Homo sapiens) it was 467 nM.
Regarding `C[C@@H]1COCCN1c1cc(N=S(C)(C)=O)nc(-c2cncn2C)c1` [Example 35, (R)-dimethyl((6-(1-methyl-1H-imidazol-5-yl)-4-(3-methylmorpholino)pyridin-2-yl)imino)-λ^6-sulfanone], in test [1] (Homo sapiens), the IC50 worked out at 9620 nM.
In the case of `C[C@@H]1COCCN1c1cc(N=S(C)(C)=O)nc(-c2cn[nH]c2)c1` [Example 36, (R)-dimethyl((4-(3-methylmorpholino)-6-(1H-pyrazol-4-yl)pyridin-2-yl)imino)-λ^6-sulfanone], in test [1] (Homo sapiens), the IC50 was determined as 5560 nM.
On the same count and under the same terms, for `C[C@@H]1COCCN1c1cc(N=S(C)(C)=O)nc(-c2cc[nH]n2)c1` [Example 37, (R)-dimethyl((4-(3-methylmorpholino)-6-(1H-pyrazol-3-yl)pyridin-2-yl)imino)-λ^6-sulfanone] the value was 8210 nM.
Same read-out and setting: next, `C[C@@H]1COCCN1c1cc(N=S(C)(C)=O)nc(-c2ccn(C)n2)c1` [Example 38, (R)-dimethyl((6-(1-methyl-1H-pyrazol-3-yl)-4-(3-methylmorpholino)pyridin-2-yl)imino)-λ^6-sulfanone]: 10000 nM.
